Laboratory results as given in patent US5610185A, “Method for the treatment of hyperproliferative epithelial skin diseases by topical application of hydroxylated aromatic protein cross-linking compounds” (The United States of America as represented by the …, priority 1995, dated 1997).
“Also recorded” adds a separate entry of the source.

Legend:
Format in all cases: cell-based
[1] = tested on: A431 human epidermoid carcinoma cells; experiment: Cornified envelope (cross-linked protein) assay, A431 cells
From the text: FIG. 5. Cross-linked Protein Production vs Growth Inhibition in A431 ([…]) Cells. Cell growth is represented by black circles and crosslinked protein production by white circles. Results are ±SD (n=3) of one experiment, representative of three.
Primary mouse keratinocytes were isolated from BALB/c newborn mouse skin. Primary keratinocytes, the benign neoplastic keratinocyte cell lines 308 and SP-1 (Strickland et al, Cancer Res., 48, 165-169, 1988) and the mouse squamous cell carcinoma line 1-7 (Greenhalgh et al., Proc. Natl. Acad. Sci., 87, 643-647, 1990) were grown in Eagle's minimal essential medium with 8% fetal calf serum (FCS) (chelexed) and penicillin 20 iu/ml, streptomycin 20 ug/ml (P/S). […]
Cells were incubated with MC for 48 hours, then cross-linked protein was isolated and measured as described in Example 1.
The assay measures insoluble cross-linked protein envelopes as described (Hough-Monroe et al. Analytical biochem., 199, 25-28, 1991), with modifications as follows. […] Absorbance of eluate was measured on a Titertek plate reader at 600 nm.
Cells were seeded at low density and were treated with MC for 3 days. Cells were then counted and increase in cell number was compared to untreated controls, or cells were processed for cross-linked protein (FIG. 5).

[2] = tested on: primary mouse keratinocytes; experiment: MTT cytotoxicity assay; details: within 4 hours, medium with 1.4 mM Ca2+
Experimental: FIGS. 3A and 3B. A: Time course for cornification of primary mouse keratinocytes in response to MC. Boxes represent […] Ca^2+, triangles represent 100 μM MC, 1.4 mM Ca^2+, and solid circles represent 1 mM MC, 1.4 mM Ca^2+. […] Cells were incubated in medium with 1.4 mM Ca^2+ and MC for 4 hours, then were incubated with MTT (0.5 mg/ml in medium) for a further 4 hours before determination of formazan production.
MTT is a dye which is reduced by mitochondrial dehydrogenase enzymes to a blue formazan product. Ability of cells to reduce MTT can be used to measure cell viability (Mosmann T., J. Immunol. Methods, 65, 55-63, 1983). Cells were incubated in 96 well plates with or without MC for the indicated time, then were incubated for a further 4 hours with 0.5 mg/ml MTT. Medium was removed and 88.9% DMSO, 11.11% glycine buffer (100 mM glycine, 100 mM NaCL pH 10.5) was added to each well. Plates were shaken for 20 minutes to allow formazan dissolution, then absorbance was measured on a plate reader at 570 nm.

[3] = tested on: transglutaminase; experiment: Transglutaminase activity in primary mouse keratinocytes
Experimental: FIG. 7. […] Black columns represent untreated cells in 1.4 mM Ca^2+ medium; and hatched columns represent cells treated with 1 mM MC. Cytosol is represented by "C" and membrane fractions are represented by "M". Results are ±SD (n=2) and were repeated in a similar experiment.
One embodiment of the present invention uses an erbstatin analog, methyl 2,5-dihydroxycinnamate, which forms cross-linked protein envelopes in normal and neoplastic epithelial cells by a mechanism independent of tyrosine kinase inhibition. Methyl 2,5-dihydroxycinnamate (MC) is a tyrosine kinase inhibitor. To assess its ability to induce epithelial cell differentiation, crosslinked protein envelopes were measured after a 48 h incubation with agent. […] To confirm differentiation, MC-treated mouse primary keratinocytes were tested for transglutaminase (TGase) activity, inhibition of protein cross-linking by the TGase inhibitor LTB-2 and HPB-2 and incorporation of the fluorescent TGase substrate dansylcadaverine into envelopes. […] This effect, in concert with growth inhibitory properties, may be useful clinically in the topical treatment of warts or superficial neoplasias of the skin.
Mouse primary keratinocytes were incubated in medium with 1.4 mM Ca^2+ for the indicated times. MC-induced cross-linking commences within 4 hours (see FIG. 3). […]

COC(=O)C=Cc1cc(O)ccc1O [MC, methyl 2,5-dihydroxycinnamate]
cross-linked protein (envelope production) ([1]; A431, 48 h, 0.1-1 mM): induced crosslinked envelope production; also recorded: increased cross-linked protein in a dose-dependent manner | minimal effective concentration ([1]; Homo sapiens, A-431, 72 h, A431, 3 days, read-out: concentration at which protein cross-linking is evident): ≥ 250 µM | MTT reduction / cell death [2]: cell death; also recorded: Inhibits MTT Reduction | transglutaminase activity ([3]; 1 mM MC, 4 hrs, cytosol and membrane fractions): not stimulated; also recorded: does not Increase Transglutaminase Activity | involvement of transglutaminase in the mode of action ([3]; TGase activity, TGase inhibitors LTB-2 and HPB-2, dansylcadaverine incorporation): refuted the involvement of TGase
